In patent US12551524B2 (U.S. NUTRACEUTICALS, INC., priority 2021, dated 2026):

Legend:
[1] = molecular target: T1, 5α-Reductase Type 1 enzyme (Homo sapiens, UniProt P18405); assay: Inhibition of 5α-Reductase Type 1; assay type: biochemical
T1 sequence (P18405 1-259): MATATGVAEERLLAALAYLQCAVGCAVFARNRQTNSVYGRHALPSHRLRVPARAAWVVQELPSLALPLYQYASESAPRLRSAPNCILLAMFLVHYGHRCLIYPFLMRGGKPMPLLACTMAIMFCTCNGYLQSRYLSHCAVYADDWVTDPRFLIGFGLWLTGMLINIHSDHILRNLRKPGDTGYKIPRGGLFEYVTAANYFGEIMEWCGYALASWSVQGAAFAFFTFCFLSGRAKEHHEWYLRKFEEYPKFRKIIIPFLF
Description: (§1) The different free fatty acids of medium and long saturated chains and long unsaturated chains are shown, together with esterified fatty acids, oxidized fatty acids, fatty alcohols, phytosterols, and other components. The magnitude of the activity is designated by “none,” “moderate” or “very active” (FIG. 3). The various constituents shown in the table of FIG. 2 are also shown and listed as free fatty acid molecules with: a) medium, saturated chains, b) long, saturated chains, and c) long unsaturated chains. There are esterified fatty acids, oxidized fatty acids, and fatty alcohols. These tables support other evidence that the five active free fatty acids for prostate and hair health are lauric, myristic, oleic, linoleic and linolenic free fatty acids.
Reference is now made to FIGS. 7B and 7C showing the use of a supercritical CO2 extracted LSESr and Permixon®.

[2] = molecular target: T2, 5α-Reductase Type 2 enzyme (Homo sapiens, UniProt P31213); assay: Inhibition of 5α-Reductase Type 2 (Inhibition Experiments 1 and 2); assay type: biochemical
T2 sequence (P31213 1-254): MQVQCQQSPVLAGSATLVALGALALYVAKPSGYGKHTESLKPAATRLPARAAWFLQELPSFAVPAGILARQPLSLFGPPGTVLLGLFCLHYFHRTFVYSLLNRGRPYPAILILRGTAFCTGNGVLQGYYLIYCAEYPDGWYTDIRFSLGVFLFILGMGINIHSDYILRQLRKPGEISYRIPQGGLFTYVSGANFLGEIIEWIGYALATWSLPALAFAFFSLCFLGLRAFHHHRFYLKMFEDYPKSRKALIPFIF
Description: as §1
Data are shown in the graphs and bar charts of FIGS. 5 and 6 where data are reported as the effectiveness to inhibit enzyme activity (IC50). […]
Inhibition Experiment 2 shown in FIG. 6 determined the possible impact of Permixon® product matrix (PEG) on an in vitro assay and the pegylated and conventional ultra-high purity supercritical CO2 extract having the PEG matrix (U4602-PEG) was compared to the commercially available Permixon® and the conventional unpegylated product (U4602) for their ability to inhibit the 5α-Reductase 2 enzyme. […]

normal shaved mice = settings: after about 20 days; cited from earlier work
[3] = tested on: men with mild to moderate androgenic alopecia; settings: 1 milligram per day, 24 months, 100 men; cited from earlier work

CCCCCCCC/C=C\CCCCCCCC(=O)O [oleic acid]
effect on 5α-Reductase-1 (in words) [1]: especially effective | effect on 5α-Reductase-2 (in words) [2]: not as much

CCCCC/C=C\C/C=C\CCCCCCCC(=O)O [linoleic acid]
hair growth (normal shaved mice): about 100%

CC(C)(C)NC(=O)[C@H]1CC[C@H]2[C@@H]3CC[C@H]4NC(=O)C=C[C@]4(C)[C@H]3CC[C@]12C [finasteride]
men who noted an improvement [3]: 68%
